Measured values taken from patent publication US5767236A, “Linear therapeutic peptides” (Biomeasure, Inc., priority 1995, dated 1998).
Residues, ends and D or L forms follow the SMILES beside them.

Tests used:
M5123 hepatoma = assay: Subcutaneous tumor assay, M5123 hepatoma; assay type: in vivo, rat; conditions: 100 μg/injection, s.c., b.i.d.
Experimental: (§1) Treatment of tumors induced by subcutaneous implantation of in vitro maintained cell cultures was initiated only when well established as progressively growing tumors in the first transplant generation from in vitro culture. "No takes" were culled and animals with tumors of similar size were carefully randomized into control and test groups.
(§2) Analogues were tested against all tumor systems except SCLC's and NSCLC's at a screening dose of 100 μg/injection, s.c., in the flank opposite from the tumor, b.i.d. Lung tumors (SCLC and NSCLC) were tested at 250 μg/injection, s.c., b.i.d. Rat breast tumors were tested at 400 Ag/injection, s.c., b.i.d., an equivalent extrapolation from the mouse dose.
(§3) In vivo transplantation established tumor systems were implanted s.c. as a 1-2 mm^3 mince of tumor tissue. Treatment was initiated within 2 to 3 days of implantation.
(§4) Tumor weights (mgs) from tumor dimensions (mm×mm) were calculated following the formula of a prolate ellipsoid: […]
(§5) L×W^2 /2, where L is the longer of the two measurements.
(§6) Tumor measurements were determined with a vernier caliper three times/week.

[1] = tested on: A-549 human non-small cell lung cancer (NSCLC); assay: Subcutaneous tumor assay, A-549 lung tumor; assay type: in vivo
Experimental: as §1, §2, §3, §4, §5, §6
A-549 An in vitro maintained human non-small cell lung cancer
(NSCLC) obtained from the American Type Culture
Collection repository. Implanted s.c. as a cell
suspension and resultant tumors treated when tumors were […]

[2] = tested on: NCI-H345 human small cell lung cancer (SCLC); assay: Subcutaneous tumor assay, NCI-H345 lung tumor; assay type: in vivo
Experimental: as §1, §2, §3, §4, §5, §6
An in vitro maintained human small cell lung cancer
(SCLC) graciously prided by Dr. A. Gazdar. Cell
agglomerates produce slow, progressively growing tumors
in approximately 80% of athymic nude mice
when implanted subcutaneously. Tested as
well established subcutaneous
xenografts in athymic nudes.

[3] = tested on: MX-1 human mammary carcinoma; assay: Subcutaneous tumor assay, MX-1 breast tumor; assay type: in vivo; conditions: MX-1, s.c. xenografts in athymic nude females, 100 μg/injection, b.i.d.
Experimental: as §1, §2, §3, §4, §5, §6
MX-1 Estrogen independent, human poorly
carcinoma. Tested as subcutaneous xenografts in athymic

CX-1 colon tumor = assay: Subcutaneous tumor assay, CX-1 colon tumor; assay type: in vivo, human; conditions: 100 μg/injection, s.c., b.i.d.
Experimental: as §1, §2, §3, §4, §5, §6
CZ-1 Mucinous adenocarcinoma, human, tested as xenografts in […]

[4] = tested on: 11095 squamous cell carcinoma of the rat prostate; assay: Subcutaneous tumor assay, 11095 prostate tumor; assay type: in vivo; conditions: 11095, s.c. xenografts in athymic nudes, 100 μg/injection, b.i.d.
Experimental: as §1, §2, §3, §4, §5, §6
11095 Androgen insensitive, squamous cell carcinoma of the rat
prostate. Originating and transplantable in Fischer 344
strain rats. Tested as subcutaneous xenografts in […]

CX-5 colon tumor = assay: Subcutaneous tumor assay, CX-5 colon tumor; assay type: in vivo, human; conditions: 100 μg/injection, s.c., b.i.d.
Experimental: as §1, §2, §3, §4, §5, §6
GOB-G Moderately differentiated adenocarcinoma, human, tested
as xenografts in athymic nude females.

[5] = tested on: 13762NF rat mammary tumor; assay: Subcutaneous tumor assay, 13762NF breast tumor; assay type: in vivo; conditions: 13762NF in Fischer 344 strain rats; rat breast tumors tested at 400 Ag/injection, s.c., b.i.d.
Experimental: as §1, §2, §3, §4, §5, §6
13762NF Estrogen insensitive rat mammary tumor transplantable in
Fischer 344 strain rats.

M7806 hepatoma = assay: Subcutaneous tumor assay, M7806 hepatoma; assay type: in vivo, rat; conditions: 100 μg/injection, s.c., b.i.d.
Experimental: as §1, §2, §3, §4, §5, §6

MT/W9Q-S breast tumor = assay: Subcutaneous tumor assay, MT/W9Q-S breast tumor; assay type: in vivo; conditions: rat breast tumors tested at 400 Ag/injection, s.c., b.i.d.
Experimental: as §1, §2, §3, §4, §5, §6

[6] = tested on: different human and animal tumors; assay: Assay on inhibition of tumor growth, overall statement; assay type: in vivo; conditions: summary of Table 3; inhibitory activity when Percent Test/Control < 80% T/C
Experimental: as §1, §2, §3, §4, §5, §6

[7] = tested on: 2PR121D(1)/R adenocarcinoma of the rat prostate; assay: Subcutaneous tumor assay, 2PR121D(1)/R prostate tumor; assay type: in vivo; conditions: s.c. tumors in Nb strain rats, 100 μg/injection, b.i.d.
Experimental: as §1, §2, §3, §4, §5, §6
Androgen resistant, poorly
differentiated adenocarcinoma
of the rate prostate derived as an androgen resistant
subline of 2PR121D(1)/S. Tested as subcutaneous tumors

[8] = tested on: AT-3 carcinoma of the rat prostate; assay: Subcutaneous tumor assay, AT-3 prostate tumor; assay type: in vivo; conditions: AT-3, s.c. xenografts in athymic nudes, 100 μg/injection, b.i.d.
Experimental: as §1, §2, §3, §4, §5, §6
AT-3 Androgen resistant, undifferentiated fast growing
carcinoma of the rat prostate. A subline of R-3327-H.
Tested as subcutaneous xenografts in athymic nudes.

M7777 hepatoma = assay: Subcutaneous tumor assay, M7777 hepatoma; assay type: in vivo, rat; conditions: 100 μg/injection, s.c., b.i.d.
Experimental: as §1, §2, §3, §4, §5, §6

GRP receptor = biological target: T1, GRP receptor (Rattus norvegicus, UniProt P52500); assay: Assay on binding to GRP receptor ([125I-Tyr4]bombesin displacement, AR42J cell membranes); conditions: for IC50: rat AR42J cell membranes, [125I-Tyr4]bombesin, 30 min, 4° C., read-out: IC50, affinity binding for the GRP receptors
T1 construct: endogenous in cells; host or cells: rat AR42J pancreatic acinar cells (membrane preparation)
Experimental: Rat AR42J pancreatic acinar cells were cultured in Dulbecco's modified Eagle's medium without antibiotics and supplemented with 10% (vol/vol) fetal calf serum. The incubation atmosphere consisted of 10% C)2 -90% humidified air at 37° C.
Membranes for the bombesin receptor binding assay were obtained by homogenizing AR42J cells (Polytron, setting 6, 15 sec) in ice-cold 50 mM Tris-HCl (Buffer A) and centrifuging twice at 39,000× g (10 min), with an intermediate resuspension in fresh buffer. The final pellets were resuspended in 50 mM Tris-HCl, containing 0.1 mg/ml bacitracin, and 0.1% BSA (Buffer B), and held on ice for the receptor binding assay.
For assay, aliquots (0.4 ml) were incubated with 0.05 ml [^125 I-Tyr^4 ] bombesin (~2200 Ci/mmol, New England Nuclear) and Buffer B, with and without 0.05 ml of unlabeled competing analogs. After a 30 min incubation (4° C.), the bound [^125 I-Tyr^4 ] bombesin was separated from the free by rapid filtration through GF/B filters which had been previously soaked in 0.1% polyethyleneimine. The filters were then washed three times with 5 ml aliquots of ice-cold Buffer A. Specific binding was defined as the total [^125 I-Tyr^4 ] bombesin bound minus that bound in the presence of 1 μM unlabeled bombesin.

T1 sequence (P52500 whole entry): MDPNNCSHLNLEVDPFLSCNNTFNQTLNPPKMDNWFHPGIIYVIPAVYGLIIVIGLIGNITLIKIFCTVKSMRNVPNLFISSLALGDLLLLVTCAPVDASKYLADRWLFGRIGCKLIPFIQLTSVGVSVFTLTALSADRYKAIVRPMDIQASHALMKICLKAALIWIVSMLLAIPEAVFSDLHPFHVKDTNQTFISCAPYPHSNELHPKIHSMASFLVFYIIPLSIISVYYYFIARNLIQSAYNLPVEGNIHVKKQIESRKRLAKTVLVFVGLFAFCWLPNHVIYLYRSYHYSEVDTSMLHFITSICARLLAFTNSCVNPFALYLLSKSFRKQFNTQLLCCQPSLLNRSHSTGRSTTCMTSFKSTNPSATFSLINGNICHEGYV

CC(C)C[C@H](NC(=O)[C@H](CC(C)C)NC(=O)[C@H](Cc1c[nH]cn1)NC(=O)CNC(=O)[C@@H](NC(=O)[C@H](C)NC(=O)[C@H](Cc1c[nH]c2ccccc12)NC(=O)[C@H](CCC(N)=O)NC(=O)[C@H](N)Cc1ccccc1)C(C)C)C(N)=O [BIM-26187, H-D-Phe-Gln-Trp-Ala-Val-Gly-His-Leu-Leu-NH2]
Percent Test/Control (tumor weight) (M5123 hepatoma): 62%
Percent Test/Control (tumor weight) ([1]; A-549 NSCLC, implanted s.c., 250 μg/injection, s.c., b.i.d.): 63%
growth inhibitory effect on non-small cell lung carcinoma (NSCLC) ([1]; FIG. 2): capable of inhibiting
Percent Test/Control (tumor weight) ([2]; NCI-H345 SCLC, s.c. xenografts in athymic nudes, 250 μg/injection, s.c., b.i.d.): 66%
Percent Test/Control (tumor weight) [3]: 78%
Percent Test/Control (tumor weight) (CX-1 colon tumor): 31%
Percent Test/Control (tumor weight) [4]: 50%
Percent Test/Control (tumor weight) (CX-5 colon tumor): 83%
Percent Test/Control (tumor weight) [5]: 70%
Percent Test/Control (tumor weight) (M7806 hepatoma): 83%
Percent Test/Control (tumor weight) (MT/W9Q-S breast tumor): 45%
inhibition of the growth of different human and animal tumors [6]: capable of inhibiting the growth
Percent Test/Control (tumor weight) [7]: 70%
Percent Test/Control (tumor weight) [8]: 36%
Percent Test/Control (tumor weight) (M7777 hepatoma): 67%
IC50 (GRP receptor): 5 nM

CC(=O)N[C@@H](Cc1c[nH]cn1)C(=O)N[C@@H](Cc1c[nH]c2ccccc12)C(=O)N[C@@H](C)C(=O)N[C@H](C(=O)NCC(=O)N[C@@H](Cc1c[nH]cn1)C(=O)N[C@@H](CC(C)C)C(=O)N[C@@H](CC(C)C)C(N)=O)C(C)C [BIM-26225, Acetyl-His-Trp-Ala-Val-Gly-His-Leu-Leu-NH2] (Ac-HWAVGHLL-NH2)
inhibition of the growth of different human and animal tumors [6]: capable of inhibiting the growth
Percent Test/Control (tumor weight) (M7777 hepatoma): 52%

CCCC[C@H](NC(=O)[C@H](Cc1ccccc1)NC(=O)[C@H](Cc1c[nH]cn1)NC(=O)CNC(=O)[C@@H](NC(=O)[C@H](C)NC(=O)[C@H](Cc1c[nH]c2ccccc12)NC(=O)[C@H](CCC(N)=O)NC(=O)[C@H](N)Cc1ccccc1)C(C)C)C(N)=O [BIM-26224, H-D-Phe-Gln-Trp-Ala-Val-Gly-His-Phe-Nle-NH2]
growth inhibitory effect on small cell lung carcinoma (SCLC) ([2]; FIG. 1): capable of inhibiting
IC50 (GRP receptor): 0.7 nM

CC(C)C[C@H](NC(=O)[C@H](CC(C)C)NC(=O)[C@H](Cc1c[nH]cn1)NC(=O)CNC(=O)[C@@H](NC(=O)[C@H](C)NC(=O)[C@H](Cc1c[nH]c2ccccc12)NC(=O)[C@H](CCC(N)=O)NC(=O)[C@H](N)Cc1ccc(O)cc1)C(C)C)C(N)=O [BIM-26278, H--D-Tyr--Gln--Trp--Ala--Val--Gly--His--Leu--Leu--NH2]
IC50 (GRP receptor): 1.5 nM
increase in the affinity for the GRP receptor compared with litorin or Leu-litorin (GRP receptor; ratio of IC50 values versus litorin / Leu-litorin): 5- to 15 times

CC(C)C[C@H](NC(=O)[C@H](Cc1ccccc1)NC(=O)[C@H](Cc1c[nH]cn1)NC(=O)CNC(=O)[C@@H](NC(=O)[C@H](C)NC(=O)[C@H](Cc1c[nH]c2ccccc12)NC(=O)[C@H](CCC(N)=O)NC(=O)[C@H](N)Cc1ccc(O)cc1)C(C)C)C(N)=O [BIM-26288, H--D-Tyr--Gln--Trp--Ala--Val--Gly--His--Phe--Leu--NH2]
IC50 (GRP receptor): 0.7 nM

CCCC[C@H](NC(=O)[C@H](CC(C)C)NC(=O)[C@H](Cc1c[nH]cn1)NC(=O)CNC(=O)[C@@H](NC(=O)[C@H](C)NC(=O)[C@H](Cc1c[nH]c2ccccc12)NC(=O)[C@H](CCC(N)=O)NC(=O)[C@H](N)Cc1ccc(O)cc1)C(C)C)C(N)=O [BIM-26279, H--D-Tyr--Gln--Trp--Ala--Val--Gly--His--Leu--Nle--NH2]
IC50 (GRP receptor): 1.7 nM
